Measurements as given in ChEMBL document CHEMBL5625227, “Discovery and optimization of 2,3-diaryl-1,3-thiazolidin-4-one-based derivatives as potent and selective cytotoxic agents with anti-inflammatory activity” (Eur J Med Chem, 2023).
The source made the active and inactive calls. No cut-off for these calls is given here.

What was measured:
[1] = system: Rattus norvegicus; test: Antiinflammatory activity against carrageenan-induced paw edema Sprague-Dawley rat model assessed as inhibition of inflammation at 50 mg/kg, po after 3 hrs relative to control; type: functional; design: scale not given: the % may be the effect or the level left
[2] = system: HT-29; test: Anti-migration activity in human HT-29 cells assessed as suppression in cell migration at 0.250 uM incubated 48 hrs by wound-healing assay; type: functional, cell-based; conditions: dose 0.25 µM
[3] = system: Ehrlich; test: Antitumor activity against mouse Ehrlich solid carcinoma cells bearing adult male swiss albino mouse assessed as decrease in tumor volume at 50 mg/kg, po administered every other day and observed at 5 days; type: functional, organism-based; conditions: time 5.0 day
[4] = Acute ulcerogenic activity in Sprague-Dawley male rat assessed as average severity of ulcers at 50 mg/kg/day, po administered for 3 days; type: toxicity, organism-based; conditions: in vivo, 72 h, time 3 day
[5] = system: Rattus norvegicus; test: Antiinflammatory activity against carrageenan-induced paw edema Sprague-Dawley rat model assessed as inhibition of paw edema by measuring edema thickness at 50 mg/kg, po measured after 5 hrs (reference value: 1.39 +/- 0.11 mm); type: functional
[6] = Selectivity index, ratio of IC50 for cytotoxicity against human MRC5 cells to IC50 for cytotoxicity against human MCF7 cells; conditions: MRC5 cells versus MCF7 cells
[7] = system: HT-29; test: Induction of apoptosis in human HT-29 cells assessed as accumulation of cells at late apoptotic stage at 0.25 uM incubated for 24 hrs by Annexin V-FITC/propidium iodide staining based flow cytometry analysis (reference value: 0.2%); type: functional
[8] = system: Ehrlich; test: Antitumor activity against mouse Ehrlich solid carcinoma cells bearing adult male swiss albino mouse assessed as tumor growth inhibition at 50 mg/kg, po administered every other day and observed at 13 days relative to control; type: functional; conditions: 312 h, time 13 day, read-out: TGI
[9] = system: Ehrlich; test: Antitumor activity against mouse Ehrlich solid carcinoma cells bearing adult male swiss albino mouse assessed as decrease in tumor volume at 50 mg/kg, po administered every other day and observed at 13 days; type: functional, organism-based; conditions: time 13.0 day
[10] = system: A2780; test: Cytotoxicity against human A2780 cells assessed as inhibition in cell growth incubated for 72 hrs by MTT assay; type: functional, cell-based; conditions: A2780, 72 h
[11] = system: Rattus norvegicus; test: Antiinflammatory activity against carrageenan-induced paw edema Sprague-Dawley rat model assessed as inhibition of inflammation at 50 mg/kg, po after 5 hrs relative to control; type: functional; design: scale not given: the % may be the effect or the level left
[12] = system: Rattus norvegicus; test: Antiinflammatory activity against carrageenan-induced paw edema Sprague-Dawley rat model assessed as inhibition of paw edema by measuring edema thickness at 50 mg/kg, po measured after 1 hr (reference value: 0.71 +/- 0.03 mm); type: functional
[13] = system: Rattus norvegicus; test: Antiinflammatory activity against carrageenan-induced paw edema Sprague-Dawley rat model assessed as inhibition of paw edema by measuring edema thickness at 50 mg/kg, po measured after 3 hrs (reference value: 1.41 +/- 0.13 mm); type: functional
[14] = Cytotoxicity against human MRC5 cells assessed as inhibition in cell growth incubated for 72 hrs by MTT assay; type: toxicity, cell-based
[15] = system: Ehrlich; test: Antitumor activity against mouse Ehrlich solid carcinoma cells bearing adult male swiss albino mouse assessed as decrease in tumor volume at 50 mg/kg, po administered every other day and observed at 9 days; type: functional, organism-based; conditions: time 9.0 day
[16] = Acute ulcerogenic activity in Sprague-Dawley male rat assessed as ulcer index at 50 mg/kg/day, po administered for 3 days; type: toxicity, organism-based; conditions: in vivo, 72 h, time 3 day
[17] = system: HT-29; test: Induction of apoptosis in human HT-29 cells assessed as accumulation of cells at viable stage at 0.25 uM incubated for 24 hrs by Annexin V-FITC/propidium iodide staining based flow cytometry analysis (Rvb=91.7%); type: functional
[18] = Acute ulcerogenic activity in Sprague-Dawley male rat assessed as change in normal lamina propria at 50 mg/kg/day, po administered for 3 days by hematoxylin and eosin staining method; type: toxicity, organism-based, Stomach; conditions: in vivo, 72 h, time 3 day
[19] = system: MCF7; test: Cytotoxicity against human MCF7 cells assessed as inhibition in cell growth incubated for 72 hrs by MTT assay; type: functional, cell-based; conditions: MCF7, 72 h
[20] = Acute ulcerogenic activity in Sprague-Dawley male rat assessed as average number of ulcers at 50 mg/kg/day, po administered for 3 days; type: toxicity, organism-based; conditions: in vivo, 72 h, time 3 day
[21] = Acute ulcerogenic activity in Sprague-Dawley male rat assessed as change in normal keratin at 50 mg/kg/day, po administered for 3 days by hematoxylin and eosin staining method; type: toxicity, organism-based, Stomach; conditions: in vivo, 72 h, time 3 day
[22] = Selectivity index, ratio of IC50 for cytotoxicity against human MRC5 cells to IC50 for cytotoxicity against human HT-29 cells; conditions: MRC5 cells versus HT-29 cells
[23] = species: Sus scrofa; test: Inhibition of porcine brain tubulin polymerization at 1 uM by fluorescence-based tubulin polymerization assay
[24] = system: HT-29; test: Anticlonogenic activity against human HT-29 cells assessed as reduction in number of colonies at 0.25 uM incubated for 24 hrs by clonogenic survival assay; type: functional, cell-based
[25] = system: Rattus norvegicus; test: Antiinflammatory activity against carrageenan-induced paw edema Sprague-Dawley rat model assessed as inhibition of inflammation at 50 mg/kg, po after 1 hr relative to control; type: functional; design: scale not given: the % may be the effect or the level left
[26] = Selectivity index, ratio of IC50 for cytotoxicity against human MRC5 cells to IC50 for cytotoxicity against human A2780 cells; conditions: MRC5 cells versus A2780 cells
[27] = system: HT-29; test: Induction of apoptosis in human HT-29 cells assessed as accumulation of cells at necrotic stage at 0.25 uM incubated for 24 hrs by Annexin V-FITC/propidium iodide staining based flow cytometry analysis (reference value: 8.1%); type: functional
[28] = Acute ulcerogenic activity in Sprague-Dawley male rat assessed as incidence of ulcer/10 animal at 50 mg/kg/day, po administered for 3 days; type: toxicity, organism-based; conditions: in vivo, 72 h, time 3 day
[29] = target: T1, Prostaglandin G/H synthase 1 (Ovis aries, UniProt P05979); test: Inhibition of ovine COX-1
T1 sequence (P05979 whole entry): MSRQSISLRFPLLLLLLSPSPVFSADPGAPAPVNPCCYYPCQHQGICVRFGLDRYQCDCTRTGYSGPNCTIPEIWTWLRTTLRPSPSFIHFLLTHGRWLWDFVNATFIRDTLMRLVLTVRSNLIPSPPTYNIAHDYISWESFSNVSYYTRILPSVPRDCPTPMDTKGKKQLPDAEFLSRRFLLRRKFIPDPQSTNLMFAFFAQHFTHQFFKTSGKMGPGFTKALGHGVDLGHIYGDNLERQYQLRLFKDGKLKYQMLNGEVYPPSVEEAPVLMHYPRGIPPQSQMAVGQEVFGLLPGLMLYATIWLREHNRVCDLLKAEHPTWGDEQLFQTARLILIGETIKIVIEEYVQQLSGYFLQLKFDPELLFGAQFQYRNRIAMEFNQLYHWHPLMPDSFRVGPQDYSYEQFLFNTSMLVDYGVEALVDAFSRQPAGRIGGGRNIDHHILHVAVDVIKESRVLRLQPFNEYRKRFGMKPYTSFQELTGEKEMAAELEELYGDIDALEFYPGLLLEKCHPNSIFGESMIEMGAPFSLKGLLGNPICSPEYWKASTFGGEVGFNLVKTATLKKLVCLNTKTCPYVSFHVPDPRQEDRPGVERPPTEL

[30] = system: HT-29; test: Induction of apoptosis in human HT-29 cells assessed as accumulation of cells at early apoptotic stage at 0.25 uM incubated for 24 hrs by Annexin V-FITC/propidium iodide staining based flow cytometry analysis (reference value: 0.1%); type: functional
[31] = system: Ehrlich; test: Antitumor activity against mouse Ehrlich solid carcinoma cells bearing adult male swiss albino mouse assessed as decrease in tumor weight at 50 mg/kg, po administered every other day and observed at 14 days; type: functional, organism-based; conditions: time 14.0 day
[32] = Acute ulcerogenic activity in Sprague-Dawley male rat assessed as change in normal glands at 50 mg/kg/day, po administered for 3 days by hematoxylin and eosin staining method; type: toxicity, organism-based, Stomach; conditions: in vivo, 72 h, time 3 day
[33] = system: HT-29; test: Cytotoxicity against human HT-29 cells assessed as inhibition in cell growth incubated for 72 hrs by MTT assay; type: functional, cell-based; conditions: HT-29, 72 h
[34] = Acute ulcerogenic activity in Sprague-Dawley male rat assessed as congestion in edema at 50 mg/kg/day, po administered for 3 days by hematoxylin and eosin staining method; type: toxicity, organism-based; conditions: in vivo, 72 h, time 3 day
[35] = Acute ulcerogenic activity in Sprague-Dawley male rat assessed as congestion in submucosa at 50 mg/kg/day, po administered for 3 days by hematoxylin and eosin staining method; type: toxicity, organism-based, Stomach; conditions: in vivo, 72 h, time 3 day
[36] = system: HT-29; test: Induction of apoptosis in human HT-29 cells assessed as accumulation of cells at late apoptotic stage at 0.5 uM incubated for 24 hrs by Annexin V-FITC/propidium iodide staining based flow cytometry analysis (reference value: 0.2%); type: functional
[37] = system: HT-29; test: Induction of cell cycle arrest in human HT-29 cells assessed as increase the number of cells at G2/M phase at 0.500 uM incubated for 24 hrs by propidium iodide staining based flow cytometry analysis relative to control; type: functional; conditions: dose 0.5 µM
[38] = system: HT-29; test: Induction of apoptosis in human HT-29 cells assessed as accumulation of cells at early apoptotic stage at 0.5 uM incubated for 24 hrs by Annexin V-FITC/propidium iodide staining based flow cytometry analysis (reference value: 0.1%); type: functional
[39] = system: HT-29; test: Induction of cell cycle arrest in human HT-29 cells assessed as increase the number of cells at S phase at 0.500 uM incubated for 24 hrs by propidium iodide staining based flow cytometry analysis relative to control; type: functional; conditions: dose 0.5 µM
[40] = Acute ulcerogenic activity in Sprague-Dawley male rat assessed as change in normal keratinized gastric mucosa at 50 mg/kg/day, po administered for 3 days by hematoxylin and eosin staining method; type: toxicity, organism-based, Stomach; conditions: in vivo, 72 h, time 3 day
[41] = system: HT-29; test: Induction of apoptosis in human HT-29 cells assessed as accumulation of cells at viable stage at 0.5 uM incubated for 24 hrs by Annexin V-FITC/propidium iodide staining based flow cytometry analysis (reference value: 91.7%); type: functional
[42] = Acute ulcerogenic activity in Sprague-Dawley male rat assessed as change in hyperactive glands at 50 mg/kg/day, po administered for 3 days by hematoxylin and eosin staining method; type: toxicity, organism-based, Stomach; conditions: in vivo, 72 h, time 3 day
[43] = system: HT-29; test: Anti-migration activity in human HT-29 cells assessed as suppression in cell migration at 0.500 uM incubated 48 hrs by wound-healing assay; type: functional, cell-based; conditions: dose 0.5 µM
[44] = system: HT-29; test: Induction of apoptosis in human HT-29 cells assessed as accumulation of cells at necrotic stage at 0.5 uM incubated for 24 hrs by Annexin V-FITC/propidium iodide staining based flow cytometry analysis (reference value: 8.1%); type: functional
[45] = Acute ulcerogenic activity in Sprague-Dawley male rat assessed as change in normal non keratinized gastric mucosa at 50 mg/kg/day, po administered for 3 days by hematoxylin and eosin staining method; type: toxicity, organism-based, Stomach; conditions: in vivo, 72 h, time 3 day
[46] = system: HT-29; test: Anticlonogenic activity against human HT-29 cells assessed as reduction in number of colonies at 0.500 uM incubated for 24 hrs by clonogenic survival assay; type: functional, cell-based; conditions: dose 0.5 µM

Row | Compound | Activity [1] [%] | Activity [3] | Activity [4] | Activity [5] [mm] | selectivity ratio at 72 h [6] | inhibition in vivo at 50 mg/kg [8] [%] | Activity [9] | IC50 [10] [µM] | Activity [11] [%] | Activity [12] [mm] | Activity [13] [mm] | IC50 at 72 h [14] [µM] | Activity [15] | UI [16] | IC50 [19] [µM] | Activity [20] | selectivity ratio at 72 h [22] | inhibition [23] | Activity [25] [%] | selectivity ratio at 72 h [26] | also measured
1 | COc1ccc(NC(=O)COc2ccc(N3C(=O)CSC3c3ccccc3)cc2)cc1 (stereo not given) | 32.7 | Active | 1 | 0.56 | 4.13 | 27.4 | Active | 0.67 | 59.7 | 0.48 | 0.56 | 6.23 | Active | 5 | 1.51 | 0.67 | 25.9 | inactive | 15.3 | 9.3 | Activity [2]: Active; Activity [7]: 5.3%; Activity [17]: 75.8%; Activity [18]: Non-Toxic; Activity [21]: Non-Toxic; Activity [24]: Active; Activity [27]: 9.8%; Activity [28]: 3.33%; IC50 [29]: 0.62 µM; Activity [30]: 9%; Activity [31]: Active; Activity [32]: Non-Toxic; IC50 [33]: 0.24 µM
2 | Cc1ccc(C2SCC(=O)N2c2ccc(OCC(=O)Nc3ccc(F)cc3)cc2)cc1 (stereo not given) | 32.7 | Active | 2.6 | 0.57 | 3.04 | 57.2 | Active | 10.5 | 58.99 | 0.59 | 0.55 | 2.46 | Active | 14.27 | 0.81 | 1.67 | 5.35 | inactive | 15.3 | 0.23 | Activity [34]: Toxic; Activity [35]: Toxic; Activity [36]: 6.1%; Activity [37]: 15.6%; Activity [38]: 10%; Activity [39]: 6.8%; Activity [40]: Non-Toxic; Activity [28]: 10%; IC50 [29]: 2.11 µM; Activity [41]: 76.2%; Activity [42]: Non-Toxic; Activity [43]: Active; Activity [31]: Active; Activity [44]: 7.7%; Activity [45]: Non-Toxic; IC50 [33]: 0.46 µM; Activity [46]: Active
